One compound from article PMC10799341, “Carnosol ameliorated cancer cachexia-associated myotube atrophy by targeting P5CS and its downstream pathways” (Frontiers in Pharmacology, 2024) can be followed below.

In one test the target is T1, GFP-Aldh18a1 (P5CS) (Mus musculus, UniProt Q9Z110).
T1 construct: GFP fusion from plasmid, tag kept; expressed in 293T cells, used as NP40 lysate
T1 sequence (Q9Z110 1-795): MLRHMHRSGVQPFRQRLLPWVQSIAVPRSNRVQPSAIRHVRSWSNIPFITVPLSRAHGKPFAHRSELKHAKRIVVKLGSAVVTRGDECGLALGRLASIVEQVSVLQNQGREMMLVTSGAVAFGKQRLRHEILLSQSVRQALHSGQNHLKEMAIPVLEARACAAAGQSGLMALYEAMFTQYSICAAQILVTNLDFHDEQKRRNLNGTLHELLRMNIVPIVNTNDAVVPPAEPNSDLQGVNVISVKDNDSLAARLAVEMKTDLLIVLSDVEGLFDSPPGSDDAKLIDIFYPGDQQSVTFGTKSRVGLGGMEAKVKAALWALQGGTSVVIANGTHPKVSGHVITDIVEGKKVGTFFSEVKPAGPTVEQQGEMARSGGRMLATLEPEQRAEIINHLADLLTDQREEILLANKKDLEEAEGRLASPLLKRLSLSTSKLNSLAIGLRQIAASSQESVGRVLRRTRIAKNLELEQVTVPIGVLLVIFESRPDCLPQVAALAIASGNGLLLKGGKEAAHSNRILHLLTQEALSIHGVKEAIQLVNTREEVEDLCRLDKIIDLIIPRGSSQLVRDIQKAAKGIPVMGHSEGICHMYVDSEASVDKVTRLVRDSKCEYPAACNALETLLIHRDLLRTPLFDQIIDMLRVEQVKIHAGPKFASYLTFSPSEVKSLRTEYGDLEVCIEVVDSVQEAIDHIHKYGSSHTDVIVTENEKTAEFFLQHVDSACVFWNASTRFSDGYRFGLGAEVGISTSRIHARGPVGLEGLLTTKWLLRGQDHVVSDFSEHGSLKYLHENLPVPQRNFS
Nature of the test: microscale thermophoresis (Monolith NT.[…]). It counts as binding.

In test [1] the target is T2, P5CS, endogenous in H9c2 cardiomyocytes (Rattus norvegicus, UniProt A0A8I6AAN3).
T2 construct: gene Aldh18a1; native endogenous protein in H9c2 cell lysate; no tag; detected by Western blot
Briefly: CETSA, Western blot. It counts as biochemical. As to conditions: H9c2 cell lysate, 20 μM carnosol, 30 min room temperature then 1 h at 4 °C; heated 5 min. On the technique in general: In western blotting, separated proteins are transferred to a membrane and probed.

The target in test [2] is T3, P5CS (Aldh18a1), endogenous in C2C12 myotubes (Mus musculus, UniProt Q9Z110).
T3 construct: native endogenous protein in C2C12 myotubes; no tag; detected by Western blot
T3 sequence (Q9Z110 1-795): T1 sequence (Q9Z110 1-795)
Nature of the test: CETSA, Western blot. In kind it is cell-based. As to conditions: intact C2C12 myotubes, 20 μM carnosol, 1 h; NP40 lysate heated 5 min.

Structures are written as SMILES.

T2 sequence (A0A8I6AAN3 1-795): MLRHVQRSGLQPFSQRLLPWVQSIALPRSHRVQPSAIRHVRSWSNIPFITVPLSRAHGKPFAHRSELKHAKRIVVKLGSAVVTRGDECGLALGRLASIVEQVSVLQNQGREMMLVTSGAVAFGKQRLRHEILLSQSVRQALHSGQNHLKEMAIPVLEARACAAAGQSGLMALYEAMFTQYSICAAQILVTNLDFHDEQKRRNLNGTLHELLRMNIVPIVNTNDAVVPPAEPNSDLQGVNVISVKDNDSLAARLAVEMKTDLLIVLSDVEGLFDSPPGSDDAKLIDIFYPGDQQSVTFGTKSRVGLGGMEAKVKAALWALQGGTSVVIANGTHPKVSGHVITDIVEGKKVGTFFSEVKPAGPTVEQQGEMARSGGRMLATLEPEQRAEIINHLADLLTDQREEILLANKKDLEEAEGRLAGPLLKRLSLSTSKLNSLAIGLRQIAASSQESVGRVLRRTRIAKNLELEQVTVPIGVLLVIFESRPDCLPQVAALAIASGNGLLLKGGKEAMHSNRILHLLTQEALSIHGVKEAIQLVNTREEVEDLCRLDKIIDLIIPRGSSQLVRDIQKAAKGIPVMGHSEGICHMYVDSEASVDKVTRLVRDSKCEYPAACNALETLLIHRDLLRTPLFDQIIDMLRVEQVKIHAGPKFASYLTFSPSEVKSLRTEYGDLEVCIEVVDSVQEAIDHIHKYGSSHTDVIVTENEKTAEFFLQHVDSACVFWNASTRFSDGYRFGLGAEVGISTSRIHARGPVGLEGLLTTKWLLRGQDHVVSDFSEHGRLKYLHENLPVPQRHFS

Take `CC(C)c1cc2c(c(O)c1O)[C@@]13CCCC(C)(C)[C@@H]1C[C@@H]2OC3=O` [carnosol]: on GFP-Aldh18a1 (P5CS), binding was put at a Kd of 17.4 µM. For the same compound, the thermal stability entry in test [1] is reported as “H9c2 cardiomyocytes also showed similar results that carnosol increased the thermal stability of P5CS”; in test [2] it was “the thermal stability of P5CS in C2C12 was improved after the incubation of myotubes with carnosol”.

For orientation: Kd means the equilibrium constant for the complex coming apart. The low end stands for higher affinity, the high end for lower affinity.
